In the supplement of paper PMC10627819 one finds Bliss interaction score data, which are given here for nine molecules.

Holding throughout (assay): Bliss interaction score (quartile over a dose matrix) (fitness difference); higher = more antagonism (negative = synergy)
Assay [1] deals with B. subtilis 168. In a few lines: (§1)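 The Bliss score is observed fitness minus expected fitness, where the expected value is the product of single-drug fitness values inferred from combination data. Fitness is OD595 at entry into stationary phase normalised to the plate's robust no-drug mean and capped at 1. Scores are reported as quartiles spanning technical, biological and donor/recipient replicates.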

Assay [2] concerns S. aureus DSM 20231. The method, boiled down: as §1
Assay [3] deals with S. aureus Newman. The method, boiled down:
as §1

Assay [4] relates to S. pneumoniae D39V. In a few lines:
as §1
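Note: first quartile when negative (synergy) and third quartile when positive (antagonism).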

Consider `CC[C@H]1OC(=O)[C@H](C)[C@@H](O[C@H]2C[C@@](C)(OC)[C@@H](O)[C@H](C)O2)[C@H](C)[C@@H](O[C@@H]2O[C@H](C)C[C@H](N(C)C)[C@H]2O)[C@](C)(O)C[C@@H](C)C(=O)[C@H](C)[C@@H](O)[C@]1(C)O` [Erythromycin] + CC1=C\[C@@H](O)CC(=O)Cc2nc(co2)C(=O)N2CCC=C2C(=O)O[C@H](C(C)C)[C@H](C)/C=C/C(=O)NC\C=C\1 [Virginiamycin M1], for which the Bliss interaction score in assay [1] is -0.0578; in assay [2], 0.0769; in assay [3], 0.066; in assay [4], 0.0687.

In the case of `CC[C@H]1OC(=O)[C@H](C)[C@@H](O[C@H]2C[C@@](C)(OC)[C@@H](O)[C@H](C)O2)[C@H](C)[C@@H](O[C@@H]2O[C@H](C)C[C@H](N(C)C)[C@H]2O)[C@](C)(O)C[C@@H](C)C(=O)[C@H](C)[C@@H](O)[C@]1(C)O` [Erythromycin] + CC(=O)NC[C@H]1CN(c2ccc(N3CCOCC3)c(F)c2)C(=O)O1 [Linezolid], the Bliss interaction score was -0.0534 in assay [1], -0.018 in assay [2], -0.0521 in assay [3] and 0.068 in assay [4].

Consider `CC[C@H]1OC(=O)[C@H](C)[C@@H](O[C@H]2C[C@@](C)(OC)[C@@H](O)[C@H](C)O2)[C@H](C)[C@@H](O[C@@H]2O[C@H](C)C[C@H](N(C)C)[C@H]2O)[C@](C)(O)C[C@@H](C)C(=O)[C@H](C)[C@@H](O)[C@]1(C)O` [Erythromycin] + CC(=O)O[C@H]1C[C@@]2(C)[C@@H](C[C@@H](O)[C@H]3[C@@]4(C)CC[C@@H](O)[C@@H](C)[C@@H]4CC[C@@]32C)/C1=C(\CCC=C(C)C)C(=O)O [Fusidic acid], for which the Bliss interaction score is -0.057 in assay [1], 0.0374 in assay [2], -0.0241 in assay [3] and -0.1 in assay [4].

As to `CC[C@H]1OC(=O)[C@H](C)[C@@H](O[C@H]2C[C@@](C)(OC)[C@@H](O)[C@H](C)O2)[C@H](C)[C@@H](O[C@@H]2O[C@H](C)C[C@H](N(C)C)[C@H]2O)[C@](C)(O)C[C@@H](C)C(=O)[C@H](C)[C@@H](O)[C@]1(C)O` [Erythromycin] + CC(C1CCC(C(O1)OC2C(CC(C(C2O)OC3C(C(C(CO3)(C)O)NC)O)N)N)N)NC [Gentamicin], the Bliss interaction score in assay [1] (main component drawn) was 0.118; in assay [2] (main component drawn), 0.0847; in assay [3] (main component drawn), 0.0427; in assay [4] (main component drawn), 0.0656.

With `CC[C@H]1OC(=O)[C@H](C)[C@@H](O[C@H]2C[C@@](C)(OC)[C@@H](O)[C@H](C)O2)[C@H](C)[C@@H](O[C@@H]2O[C@H](C)C[C@H](N(C)C)[C@H]2O)[C@](C)(O)C[C@@H](C)C(=O)[C@H](C)[C@@H](O)[C@]1(C)O` [Erythromycin] + CCC(C)C1C(=O)NC(=C)C(=O)NC(C(=O)NC(CSCC(C(=O)N1)NC(=O)/C(=C/C)/NC(=O)C(C(C)CC)N)C(=O)NC2C(SCC(NC(=O)CNC(=O)C3CCCN3C2=O)C(=O)NC(CCCCN)C(=O)NC4C(SCC(NC(=O)CNC(=O)C(NC(=O)C(NC(=O)C(NC(=O)CNC4=O)C)CC(C)C)CCSC)C(=O)NC(CC(=O)N)C(=O)NC(CCSC)C(=O)NC(CCCCN)C(=O)NC5C(SCC6C(=O)NC(C(=O)NC(CSC(C(C(=O)N6)NC(=O)C(NC5=O)C)C)C(=O)NC(CO)C(=O)NC(C(C)CC)C(=O)NC(CC7=CN=CN7)C(=O)NC(C(C)C)C(=O)NC(=C)C(=O)NC(CCCCN)C(=O)O)CC8=CN=CN8)C)C)C)CC(C)C [Nisin], the Bliss interaction score was 0.0295 in assay [1] (main component drawn), -0.029 in assay [2] (main component drawn), -0.028 in assay [3] (main component drawn) and -0.0423 in assay [4] (main component drawn).

Take `CC[C@H]1OC(=O)[C@H](C)[C@@H](O[C@H]2C[C@@](C)(OC)[C@@H](O)[C@H](C)O2)[C@H](C)[C@@H](O[C@@H]2O[C@H](C)C[C@H](N(C)C)[C@H]2O)[C@](C)(O)C[C@@H](C)C(=O)[C@H](C)[C@@H](O)[C@]1(C)O` [Erythromycin] + CCCCCCCCCC(=O)N[C@@H]1[C@H]([C@@H]([C@H](O[C@H]1OC2=C3C=C4C=C2OC5=C(C=C(C=C5)[C@H]([C@H]6C(=O)N[C@@H](C7=C(C(=CC(=C7)O)OC8[C@H]([C@H]([C@@H]([C@H](O8)CO)O)O)O)C9=C(C=CC(=C9)[C@H](C(=O)N6)NC(=O)[C@@H]4NC(=O)[C@@H]1C2=CC(=CC(=C2)OC2=C(C=CC(=C2)[C@H](C(=O)N[C@H](CC2=CC(=C(O3)C=C2)Cl)C(=O)N1)N)O)O)O)C(=O)O)O[C@H]1[C@@H]([C@H]([C@@H]([C@H](O1)CO)O)O)NC(=O)C)Cl)CO)O)O [Teicoplanin]: the Bliss interaction score in assay [1] (main component drawn) is -0.046; in assay [2] (main component drawn), 0.0621; in assay [3] (main component drawn), 0.154; in assay [4] (main component drawn), 0.0581.

As for `CC[C@H]1OC(=O)[C@H](C)[C@@H](O[C@H]2C[C@@](C)(OC)[C@@H](O)[C@H](C)O2)[C@H](C)[C@@H](O[C@@H]2O[C@H](C)C[C@H](N(C)C)[C@H]2O)[C@](C)(O)C[C@@H](C)C(=O)[C@H](C)[C@@H](O)[C@]1(C)O` [Erythromycin] + CCC[C@@H]1C[C@@H](C(=O)N[C@@H]([C@H]2O[C@H](SC)[C@H](O)[C@@H](O)[C@H]2O)[C@@H](C)O)N(C)C1 [Lincomycin], the Bliss interaction score in assay [1] is 0.107; in assay [2] it was -0.0609; in assay [3] it was -0.1; in assay [4], 0.0856.

Consider `CC[C@H]1OC(=O)[C@H](C)[C@@H](O[C@H]2C[C@@](C)(OC)[C@@H](O)[C@H](C)O2)[C@H](C)[C@@H](O[C@@H]2O[C@H](C)C[C@H](N(C)C)[C@H]2O)[C@](C)(O)C[C@@H](C)C(=O)[C@H](C)[C@@H](O)[C@]1(C)O` [Erythromycin] + CCN(CC)CCOC(=O)c1ccc(N)cc1 [Procaine], for which the Bliss interaction score in assay [1] is -0.0671; in assay [2] it was -0.0573; in assay [3], 0.0663; in assay [4] it was -0.048.

In the case of `CC[C@H]1OC(=O)[C@H](C)[C@@H](O[C@H]2C[C@@](C)(OC)[C@@H](O)[C@H](C)O2)[C@H](C)[C@@H](O[C@@H]2O[C@H](C)C[C@H](N(C)C)[C@H]2O)[C@](C)(O)C[C@@H](C)C(=O)[C@H](C)[C@@H](O)[C@]1(C)O` [Erythromycin] + CC[C@H]1OC(=O)[C@H](C)C(=O)[C@H](C)[C@@H](O[C@@H]2O[C@H](C)C[C@H](N(C)C)[C@H]2O)[C@](C)(OC)C[C@@H](C)C(=O)[C@H](C)[C@H]2N(CCCCn3cnc(-c4cccnc4)c3)C(=O)O[C@]12C [Telithromycin], the Bliss interaction score in assay [1] was -0.0361; in assay [2], -0.0237; in assay [3] it was -0.0283; in assay [4] it was 0.0262.
